The text below walks through data of patent publication US6153624A, “Pyrrolidine and piperidine derivatives and treatment of neurodegenerative disorders” (Hoffman-LaRoche Inc., priority 1998, dated 2000).

The term IC50 denotes the point on the concentration scale where inhibition reaches its midpoint. Read a high IC50 as weaker potency.

T1 sequence (Q00960 27-1482, other chains not shown): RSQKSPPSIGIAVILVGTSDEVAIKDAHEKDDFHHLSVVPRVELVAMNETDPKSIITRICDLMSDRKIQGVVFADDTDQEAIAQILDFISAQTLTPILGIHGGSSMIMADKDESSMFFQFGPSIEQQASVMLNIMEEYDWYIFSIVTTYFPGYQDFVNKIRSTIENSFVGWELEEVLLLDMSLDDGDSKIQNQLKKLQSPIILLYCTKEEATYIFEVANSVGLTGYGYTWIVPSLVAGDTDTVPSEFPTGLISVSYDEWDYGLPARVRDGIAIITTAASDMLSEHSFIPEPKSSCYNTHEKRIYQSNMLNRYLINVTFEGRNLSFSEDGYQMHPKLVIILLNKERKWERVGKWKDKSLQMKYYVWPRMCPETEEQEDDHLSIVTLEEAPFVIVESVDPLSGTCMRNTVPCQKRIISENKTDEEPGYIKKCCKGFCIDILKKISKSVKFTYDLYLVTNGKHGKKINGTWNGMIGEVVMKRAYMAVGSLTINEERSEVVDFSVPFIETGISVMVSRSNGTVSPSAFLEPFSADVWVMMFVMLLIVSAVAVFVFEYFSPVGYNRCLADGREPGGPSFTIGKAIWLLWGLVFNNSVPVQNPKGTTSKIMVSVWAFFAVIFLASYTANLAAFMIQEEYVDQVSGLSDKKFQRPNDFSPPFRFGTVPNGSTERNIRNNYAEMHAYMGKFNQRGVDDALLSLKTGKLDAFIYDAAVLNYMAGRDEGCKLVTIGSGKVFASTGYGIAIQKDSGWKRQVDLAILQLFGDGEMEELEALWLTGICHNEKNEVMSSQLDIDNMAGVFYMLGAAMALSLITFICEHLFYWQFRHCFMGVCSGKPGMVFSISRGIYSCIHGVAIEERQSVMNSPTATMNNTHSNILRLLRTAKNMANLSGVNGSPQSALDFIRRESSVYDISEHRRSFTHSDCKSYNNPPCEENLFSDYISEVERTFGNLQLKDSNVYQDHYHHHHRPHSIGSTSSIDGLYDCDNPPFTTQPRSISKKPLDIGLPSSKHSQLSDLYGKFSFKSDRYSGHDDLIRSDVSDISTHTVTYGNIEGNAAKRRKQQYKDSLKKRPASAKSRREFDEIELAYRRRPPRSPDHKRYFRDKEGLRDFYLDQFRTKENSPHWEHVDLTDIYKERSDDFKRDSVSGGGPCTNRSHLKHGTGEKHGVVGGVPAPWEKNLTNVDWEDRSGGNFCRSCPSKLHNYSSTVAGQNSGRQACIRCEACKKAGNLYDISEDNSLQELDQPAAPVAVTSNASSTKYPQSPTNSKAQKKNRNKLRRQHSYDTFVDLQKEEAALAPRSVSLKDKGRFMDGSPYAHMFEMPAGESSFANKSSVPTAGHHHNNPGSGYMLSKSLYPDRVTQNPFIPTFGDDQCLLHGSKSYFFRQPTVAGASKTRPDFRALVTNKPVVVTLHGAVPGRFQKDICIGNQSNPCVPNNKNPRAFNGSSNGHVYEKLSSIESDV

The first assay concerns the target T1, N-methyl-D-aspartate (NMDA) receptor containing the NR2B subunit (Rattus norvegicus, UniProt P35439+Q00960).
T1 construct: Membranes were prepared by homogenization of the whole brain minus cerebellum and medulla oblongata; from tissue; host or cells: rat whole brain minus cerebellum and medulla oblongata, membranes
Put plainly: 3H-Ro 25-6981 binding (displacement) to rat brain membranes. Particulars: 3H-Ro 25-6981 5 nM, 2 hours at 4° C., pH 7.4, rat whole brain minus cerebellum and medulla oblongata. Further details: species or system rat (male Fullinsdorf albino). From the text:
In the following test RO 25-6981 ([R-(R*,S*)]-a-(4-Hydroxy-phenyl)-b-methyl-4-(phenyl-methyl)-1-piperidine propanol)has been used as a high and selective blocker of N-methyl-D-aspartate (NMDA) receptor containing the NR2B subjunit. The interaction of RO 25-6981 with NMDA receptors is characterized by the described test in vitro.
3H-Ro 25-6981 binding (Ro 25-6981 is [R-(R*,S*)]-a-(4-Hydroxy-phenyl)-b-methyl-4-(phenyl-methyl)-1-piperidine propanol)
Male Fullinsdorf albino rats weighing between 150-200 g were used. Membranes were prepared by homogenization of the whole brain minus cerebellum and medulla oblongata with a Polytron (10.000 rpm, 30 seconds), in 25 volumes of a cold Tris-HCl 50 mM, EDTA 10 mM, pH 7.1 buffer. The homogenate was centrifuged at 48.000 g for 10 minutes at 4° C. The pellet was resuspended using the Polytron in the same volume of buffer and the homogenate was incubated at 37° C. for 10 minutes. After centrifugation the pellet was homogenized in the same buffer and frozen at -80° C. for at least 16 hours but not more than 10 days. For the binding assay the homogenate was thawed at 37° C., centrifuged and the pellet was washed three times as above in a Tris-HCl 5 mM, pH 7.4 cold buffer. The final pellet was resuspended in the same buffer and used at a final concentration of 200 μg of protein/ml.
3H-Ro 25-6981 binding experiments were performed using a Tris-HCl 50 mM, pH 7.4 buffer. For displacement experiments 5 nM of 3H-Ro 25-6981 were used and non specific binding was measured using 10 μm of tetrahydroisoquinoline and usually it accounts for 10% of the total. The incubation time was 2 hours at 4° C. and the assay was stopped by filtration on Whatmann GF/B glass fiber filters (Unifilter-96, Packard, Zurich, Switzerland). The filters were washed 5 times with cold buffer. The radioactivity on the filter was counted on a Packard Top-count microplate scintillation counter after addition of […] of microscint 40 (Canberra Packard S. A., Zurich, Switzerland).
The effects of compounds were measured using a minimum of 8 concentrations and repeated at least once. The pooled normalized values were analyzed using a non-linear regression calculation program which provide IC50 with their relative upper and lower 95% confidence limits (RS1, BBN, USA).
On to `COc1ccc(CCC2CCC(C(=O)c3ccc(O)cc3)N2)cc1` (racemic) [Example 7, Mixture of (2RS,5RS)-- and (2RS,5SR)-(4-hydroxy-phenyl)-[5-[2-(4-methoxy-phenyl)-ethyl]-pyrrolidin-2-yl]-methanone], for which the IC50 was determined as 70 nM. Same read-out and setting: in the case of `COc1ccc(CC[C@H]2CC[C@@H]([C@H](O)c3ccc(O)c(F)c3)N2)cc1` (racemic) [Example 2, 2-fluoro-4-[(RS)-hydroxy-[(2SR,5SR)-5-[2-(4-methoxy-phenyl)-ethyl]-pyrrolidin-2-yl]-methyl]-phenol] it was 30 nM; in that of `COc1ccc(CC[C@@H]2CC[C@H](Cc3ccc(O)cc3)N2)cc1` (racemic) [Example 4, (2RS,5RS)-4-[5-[2-(4-methoxy-phenyl)-ethyl]-pyrrolidin-2-ylmethyl]-phenol], 40 nM; in that of `COc1ccc(CC[C@@H]2CCC[C@H](C(O)c3ccc(O)cc3)N2)cc1` (stereo partly shown) [Example 3], 30 nM. Same read-out and setting: the same measure for `Oc1ccc([C@@H](O)[C@@H]2CC[C@@H](CCc3ccccc3)N2)cc1` (racemic) [Example 1, 4-[(RS)-hydroxy-[(2SR,5RS)-5-phenethyl-pyrrolidin-2-yl]-methyl]-phenol]: 20 nM; for `Oc1ccc([C@H]2OCCN3[C@@H](CCc4ccccc4)CC[C@H]23)cc1` (racemic) [Example 35, (1RS,6SR,8aRS)-4-(6-phenethyl-hexahydro-pyrrolo[2,1-c][1,4]oxazin-1-yl)-phenol]: 90 nM. For the molecule `Oc1ccc([C@H]2OCN3[C@H](CCc4ccccc4)CC[C@@H]23)cc1` (racemic) [Example 37, (1RS ,5RS,7aSR)-4-(5-phenethyl-tetrahydro-pyrrolo[1,2-c]oxazol-1-yl)-phenol], the IC50 is 50 nM. On the same count and under the same terms, the same measure for `Oc1ccc([C@@H](O)[C@@H]2CC[C@@H](CCc3ccccc3)N2)cc1O` (racemic) [Example 5, 4-[(RS)-hydroxy-[(2SR,5RS)-5-phenethyl-pyrrolidin-2-yl]-methyl]-benzene-1,2-diol]: 40 nM; for `COc1ccc(CC[C@@H]2CCC[C@H](Cc3ccc(O)cc3)N2)cc1` (racemic) [Example 6, (2RS,6SR)-4-[6-[2-(4-methoxy-phenyl)-ethyl]-piperidin-2-ylmethyl]-phenol]: 45 nM.

The next assay has as its system NMDA receptors.
Assay: not given
Particulars: Journ. of Pharmacology, Vol. 283, No.8, 1285-1297; cited from earlier work.
As to `C[C@@H](CN1CCC(Cc2ccccc2)CC1)[C@@H](O)c1ccc(O)cc1` [RO 25-6981, [R-(R*,S*)]-a-(4-Hydroxy-phenyl)-b-methyl-4-(phenyl-methyl)-1-piperidine propanol], the “demonstration of NMDA receptor block (in words)” value was “highly selective, activity-dependent blocker of NMDA receptors”.
